# Measurements from article PMC3989207, “Subchronic Toxicological Study of Two Artemisinin Derivatives in Dogs” (PLoS ONE, 2014).
# What was measured:
# [1] = tested on: beagle dogs; experiment: Clinical observations; assay type: in vivo
# Experimental: (§1) The first day of treatment was regarded as day one in the study. […] Oral administration was performed about 2 h after feeding. ARM was administered by a bolus intramuscular infusion through a 25-gauge needle at a constant volume of 2 ml kg^−1 once a day into the gluteal and infraspinous muscles. Two dogs of each sex from each group were allowed to recover without further treatment for an additional 4 weeks.
# All dogs were assessed once daily for mortality and toxicological or other clinical signs, including behavioral changes (such as tremor, gait impairment, balance disturbance and auditory impairment), appetite, excreta (urinalysis for specific gravity, ketone bodies and pH), balance and coordination. Standard and acceptable veterinary health care practices were used during this evaluation to ensure good health of the animals.
# [2] = parameters: method as in Li et al. (2006); settings: applied to ARM plasma levels; ref Li et al. (2006); cited from earlier work
# [3] = tested on: beagle dogs; experiment: Hematology in the 13-week repeated-dose dog study; assay type: in vivo
# Experimental: as §1
# Blood samples were collected from the femoral vein of each dog prior to treatment and every 2 weeks after the first day of treatment. Hematology parameters were measured using an automated hematology analyzer (Sysmex, XT-2000iv, Toa Medical Electronics Co. Ltd., Kobe, Japan) using standard methods. Test parameters included hemoglobin (Hb) levels, the hematocrit (Hct) fraction, erythrocyte (RBC) count, leukocyte (WBC) count, neutrophilic granulocyte fraction (NE%), monocyte fraction (MO%), lymphocyte levels (LY%), platelet count (PLT), reticulocyte count (RET%) and RBC morphology. The following clinical chemistry parameters were measured using a Hitachi-7180 Chemistry Analyzer (High-Technologies Corporation, Tokyo, Japan) and standard methods: glucose, blood urea nitrogen, inorganic phosphorus, creatinine, total protein, albumin, calcium, aspartate aminotransferase (AST), alanine aminotransferase, alkaline phosphatase, total bilirubin, creatine kinase (CK), sodium, potassium and chloride.
# The differential granulocytic and erythrocytic series (erythroid, myeloid blast cell count and the red ratio) were determined manually from blood smears.
# [4] = tested on: beagle dogs; experiment: Ultra-structural examination of liver, kidney and heart by transmission electron microscopy; assay type: in vivo, dog; settings: weeks 4, 8 and 13; TEM
# Experimental: as §1
# Termination of treatment was scheduled to occur on weeks 4, 8 (two interim necropsies) and 13, followed by a 4-week recovery period. For pathological examinations, the animals were euthanized within 24 h of the final drug administration with sodium pentobarbital, followed by exsanguination via the femoral artery. A gross necropsy was performed, including a thorough visual examination of all the internal organs. Weights were obtained for the brain, heart, liver, spleen, lung, kidneys, adrenals, thyroid/parathyroids, thymus, pancreas and ovaries/testes/prostate, and organ-to-body weight ratios were calculated. For each animal, representative samples from approximately 48 organs and tissues were taken and fixed in neutral buffered 10% formalin, except for the sternum, which was retained in Helly’s fixative (1000 ml distilled water, 25 g potassium dichromate, 10 g sodium sulfate, 50 g mercuric chloride, 50 ml 40% formaldehyde). […]
# [5] = tested on: Rats; parameters: method as in Akinlolu and Shokunbi, 2008 [41]; settings: 25 mg kg^−1 per day, i.m. for 7 days, ref Akinlolu and Shokunbi, 2008 [41]; cited from earlier work
# [6] = tested on: Rats; parameters: method as in Xiao et al. (2002) [31]; settings: cited from earlier work
# [7] = tested on: beagle dogs; experiment: Electrocardiography in the 13-week repeated-dose dog study; assay type: in vivo; settings: for Heart rate: 6 mg kg^-1 per day (ART p.o., ARM i.m.), vs control group
# Experimental: as §1
# Electrocardiograms were recorded using an Auto Electrocardiogram (ECG-9130P, Nihon Kohden Corporation, Japan). Recordings were taken from each dog, while conscious, every 2 weeks from week-1. Leads I, II, III, aVR, aVL and aVF were utilized. The electrocardiography (ECG) parameters included heart rate, PR, QRS and QT interval, and QRS and T wave amplitudes. As the PQ and QT intervals vary with heart rate, they were adjusted to an RR-interval of 500 ms, corresponding to a heart rate of 120 bpm using the following equation: QT500 = QT – 0.084×(RR – 500).
# [8] = tested on: Mouse; parameters: method as in Nontprasert et al., 2000 [42]; settings: 300 mg kg^−1 per day, p.o. for 28 days, ref Nontprasert et al., 2000 [42]; cited from earlier work
# [9] = week 2 until week 10 post-treatment, vs control groups (p<0.05)
# [10] = oral 80 and 400 mg kg^−1 once every 2 weeks for 5 months, ref Xiao et al. (2002) [31]
# [11] = oral high dose of 400 mg kg^−1, ref Xiao et al. (2002) [31]
smiles,measurement,setting,value
"CO[C@H]1O[C@@H]2O[C@@]3(C)CC[C@H]4[C@H](C)CC[C@@H]([C@H]1C)[C@@]24OO3 [ARM, artemether]",behavioral changes,[1]; 6 mg kg^-1 per day i.m. for 13 weeks,not observed
same,main clinical signs,"[1]; 6 mg kg^-1 per day i.m., after treatment for 4 weeks up to the end of the recovery period",skin thickening at the injection site and myonecrosis-like features
same,lowest observed neurotoxic effect level (plasma concentration),[2],40.92 ng/mL
same,Hematology (overall),"[3]; Week 13, 6 mg kg^-1 per day",- (“-” = No effect)
same,MO%,"[3]; females, after weeks 6, 8 and 10 (p<0.05)",significant increases
same,Hb levels,[3]; week 2,corresponding decrease
same,RBC counts,[3]; week 2,decrease
same,LY%,[3]; [9],decreased
same,NE%,[3]; [9],significantly increased
same,WBC count,[3]; [9],significantly increased
same,RET%,"[3]; week 10, males and females, vs peanut oil control group (p<0.05)",significant increase
same,"ultra-structural findings in hepatocytes, myocardial cells and proximal tubules in the kidney",[4],Mitochondrial bending and distortion and swollen vacuoles
same,Effect (toxicology),[5],"Damage of trapezoid nuclei, abnormalities in balance and coordination"
same,Hb levels,[6]; [10],reversible increase
same,QT interval,[6]; [10],No changes
same,reticulocyte count,[6]; [10],reversible reduction
same,liver finding,[6]; [11],transient focal vesicle degeneration of the liver
same,neuropathological alterations,[6]; [11],no evidence of neuropathological alterations
same,Heart rate,[7]; Week 4,- (“-” = No effect)
same,Heart rate,[7]; Week 8,- (“-” = No effect)
same,Heart rate,[7]; Week 13,- (“-” = No effect)
same,"mean QT intervals (adjusted for heart rate, QT500)","[7]; week 3 until the final drug treatment, male and female dogs, vs vehicle control",prolonged
same,Effect (toxicology),[8],Balance/gait disturbances and mortality
